Source: patent US20220298493A1, “INACTIVATION PROCESS FOR VIRUSES” (priority 2019, published 2022)
Read-outs that look alike come from different tables or passages of the source.

Test system: Chikungunya virus
Details: 200 ppm formaldehyde, 22° C.

C=O [formaldehyde]
reduction of virus titer (TCID50) (after ~9 h): 99%
reduction of virus titer (TCID50) (after ~15 h): 99.9%
